In patent US7923440B2, “Method of treating or preventing immune mediated disorders and pharmaceutical formulation for use therein” (Pantarhei Bioscience B.V., priority 2002, dated 2011):
Read-outs that look alike come from different tables or passages of the source.

What was measured:
[1] = Single rising oral dose study in healthy postmenopausal volunteers; assay type: in vivo, human
Protocol: To determine the bioavailability and elimination half-life of estetrol after oral dosing in humans a single rising dosing study was performed in healthy postmenopausal volunteers. Volunteers (n=6) were randomly assigned to 0.1, 1 or 10 mg estetrol and blood samples (18 per volunteer) were obtained over a period of 72 hours.
After thawing the plasma samples, liquid-liquid extraction (hexane and diethyl ether) was employed to prepare the estetrol-containing plasma samples for HPLC analysis (Perkin Elmer 200) and tandem mass spectrometry using a PE Sciex 4000 tandem mass spectrometer and APCI interface. With each sample batch, a calibration curve with 6 calibrators was recorded. The calibration curve was calculated using linear regression (correlation coefficient >0.98), which permitted quantitation of plasma concentrations.

immature rat uterus = conditions: subcutaneously administered, cited from earlier work
[2] = test system: male DBA/1 mice with collagen induced arthritis (CIA); test: Collagen induced arthritis (CIA) in male DBA/1 mice, oral treatment; assay type: in vivo, mouse; conditions: for average day of disease onset (arthritis): vehicle 25.4±0.64
Protocol: The ability of estetrol to alleviate the severity of immune mediated disorders and its possible side-effects were evaluated and compared with dexamethasone in mice developing collagen induced arthritis (CIA), which is another experimental system of autoimmune and chronic inflammatory disease, representing human arthritic diseases, particularly rheumatoid arthritis (RA).
Arthritis was induced in male DBA/1 mice using a two-step immunization protocol (Joosten et al., “Dual role of IL-12 in early and late stages of murine collagen type II arthritis”. J Immunol 1997; 159:4094-4102; Joosten et al., “IL-1β blockade prevents cartilage and bone destruction in murine type II collagen-induced arthritis, whereas TNFα blockade only ameliorates joint inflammation”. J Immunol 1999; 163:5049-55). This strain is highly susceptible to CIA induced with bovine type II collagen. On day 0, mice were immunized with bovine type II collagen (100 μg) emulsified in Freund's complete adjuvant (four subcutaneous injections in the back). On day 21, mice were boosted with an i.p. injection of 100 μg collagen type II diluted in PBS.
The effect of oral treatment with estetrol on collagen-induced arthritis was studied in a 6-week study design. From day 22 until the end of the study (day 42), the animals were treated once daily with vehicle (hydroxypropyl-beta-cyclodextrin in a 20% wt/vol solution in water) serving as negative control or four different dosages of estetrol (3 mg/kg, 1 mg/kg, 0.3 mg/kg and 0.1 mg/kg). Dexamethasone (1 mg/kg), was chosen as a positive control because it is a well studied corticosteroid that reduces swelling and inflammation and is used in a variety of disorders such as skin diseases (psoriasis, hives), allergic conditions, breathing problems, cancer, blood disorders (anemia), digestive problems, eye disorders and for the treatment of arthritis. Although effective as an anti-inflammatory agent, dexamethasone is also known to induce a number of side effects, which amongst others include in humans the induction of osteoporosis, reduced adrenal function, dizziness, nausea, indigestion, increased appetite, weight gain due to enhanced water retention, weakness and/or sleep disturbances. In addition, systemic dexamethasone treatment in rodents results in strong catabolic effects that can be easily observed as weight loss (Orzechowski et al. 2002, “Rats with a glucocorticoid-induced catabolic state show symptoms of oxidative stress and spleen atrophy: the effects of age and recovery”. J Vet Med A Physiol Pathol Clin Med; 49:256-63).
All groups used in the study consisted of 13 mice. During the study animals were weighed and monitored for clinical signs of arthritis. Scoring of disease severity (clinical arthritis score) was performed according to scoring system described by Joosten et al. 1997 (J. Immunol., 159:4094-4102) and Joosten et al. 1999 (J. Immunol., 163:5049-55).
Basic statistical analyses were performed as follows: The significance of differences between all treatment groups in the main clinical outcome parameters was tested using analysis of variance (ANOVA). Each significant ANOVA was followed by post hoc Tukey tests to determine the significance of the difference between each treatment group and the control group. Furthermore, linear regression analysis was used to study the dose-dependency of the effects of treatment with estetrol. All statistical analysis were performed using statistical software program SPSS 10.0 for Windows (SPSS Inc., Chicago, Ill., USA).

[3] = intravenous, two adult women, Fishman et al. 1970; cited from earlier work
[4] = biological target: T1, rat uterine cytosol estrogen receptor (Rattus norvegicus, UniProt P06211); conditions: Martucci et al. 1976; cited from earlier work
T1 construct: rat uterine cytosol estrogen receptor; host or cells: rat uterus, cytosol
T1 sequence (P06211 1-600): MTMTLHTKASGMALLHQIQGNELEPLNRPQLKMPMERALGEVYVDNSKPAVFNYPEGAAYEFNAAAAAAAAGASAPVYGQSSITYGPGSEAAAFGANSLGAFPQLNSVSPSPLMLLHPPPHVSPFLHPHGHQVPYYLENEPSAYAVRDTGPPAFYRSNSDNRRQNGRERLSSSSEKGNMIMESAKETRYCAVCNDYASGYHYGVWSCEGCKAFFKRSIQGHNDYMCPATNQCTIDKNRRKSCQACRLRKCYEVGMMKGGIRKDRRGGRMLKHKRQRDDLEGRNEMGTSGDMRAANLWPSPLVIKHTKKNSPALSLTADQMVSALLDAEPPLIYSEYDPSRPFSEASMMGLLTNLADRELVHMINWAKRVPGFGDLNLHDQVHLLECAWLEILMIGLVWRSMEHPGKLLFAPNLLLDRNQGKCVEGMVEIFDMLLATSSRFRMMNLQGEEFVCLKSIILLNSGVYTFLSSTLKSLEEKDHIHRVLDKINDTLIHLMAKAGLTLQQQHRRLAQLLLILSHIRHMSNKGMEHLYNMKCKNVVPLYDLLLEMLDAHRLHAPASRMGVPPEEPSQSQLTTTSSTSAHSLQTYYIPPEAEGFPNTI

[5] = test system: human breast cancer cells (MCF-7); conditions: in vitro cell proliferation, Jozan et al. 1981; cited from earlier work
uterus = conditions: continuous administration from a subcutaneous depot, Martucci et al. 1977; cited from earlier work
[6] = test system: DBA-1 mice developing collagen induced arthritis (CIA); test: Collagen induced arthritis (CIA) in female DBA-1 mice; assay type: in vivo, mouse
[7] = ovariectomized female DBA-1 mice, sc and oral 0.1-3.0 mg/kg/day, 60 days

In the case of `C[C@]12CC[C@@H]3c4ccc(O)cc4CC[C@H]3[C@@H]1[C@@H](O)[C@@H](O)[C@@H]2O` [E4, 1,3,5 (10)-estratrien-3,15α,16α,17β-tetrol], the half-life ([1]; female, human, plasma, po, human postmenopausal subjects, read-out: elimination half-life) is reported as over 15 h, the tolerability ([1]; oral single dose 0.1, 1, 10 mg, postmenopausal volunteers) is reported as “Good tolerability” and the AUC dose-linearity ([1]; oral single dose 0.1 to 10 mg, postmenopausal volunteers) is reported as “good dose-linearity”. The uterotrophic activity (immature rat uterus; Holinka et al. 1979) was “very weak uterotrophic activity”, the uterotrophic activity (immature rat uterus; Holinka et al. 1980) was “very weak uterotrophic activity” and the “average day of disease onset (arthritis)” value ([2]; oral 0.1 mg/kg) was 25.8 days. The “average day of disease onset (arthritis)” value ([2]; oral 0.3 mg/kg) was 26.0 days, the “increase in disease incidence versus vehicle” value ([2]; oral 1.0 mg and 3.0 mg/kg groups) was “clearly delayed” and the “average day of disease onset (arthritis)” value ([2]; oral 1.0 mg/kg) was 28.2 days. For the same molecule, the “body weight, % of initial weight (day 21)” value (from here on “body weight, %”) ([2]; oral 3.0 mg/kg, day 28) was 99.3%, the “body weight, %” value ([2]; oral 3.0 mg/kg, day 35) was 96.7% and the “body weight, %” value ([2]; oral 3.0 mg/kg, day 42) was 97.9%. The “average day of disease onset (arthritis)” value ([2]; oral 3.0 mg/kg) was 30.7 days, the “average cumulative arthritis score” value ([2]; oral 0.1-3 mg/kg, day 21 to 42) was “dose-dependently reduced and significantly different as compared to vehicle-treated animals” and the “development of macroscopical arthritis score” value ([2]; oral 0.1-3 mg/kg, day 22-42) was “dose-dependently reduced”. For the same molecule, the weight loss ([2]; oral, lower three doses (0.1, 0.3 and 1.0 mg/kg)) was “comparable to the negative and positive control animal groups”, the excretion [3] was “rapidly and completely excreted in urine as the glucosiduronate” and the metabolism [3] was “virtually no metabolism except for conjugation took place”. For the same molecule, the “relative binding affinity, of 17β-estradiol (100%)” value [4] was 0.5%, the “agonistic potency relative to 17β-estradiol” value [5] was 2% and the uterotrophic activity (uterus) was “very weak uterotrophic activity”. The “symptoms and severity of CIA” value ([6]; non-castrated female DBA-1, daily sc and/or oral) was “dose-dependently alleviate symptoms and severity of CIA”, the “number of afflicted animals and/or severity of CIA symptoms” value [6, 7] was “dose-dependently reduced” and the “onset of CIA symptoms” value [6, 7] was “dose-dependent effects in delaying the onset of CIA symptoms”.
